Test results from patent publication US20260092246A1, “PLATFORM FOR ANTIMICROBIAL SUSCEPTIBILITY TESTING AND BACTERIAL IDENTIFICATION” (ASTRADX, INC., priority 2022, published 2026).
Read-outs that look alike come from different tables or passages of the source.

System: E. coli
Test: Antimicrobial susceptibility testing by dilution-temporal modeling (DTM) of growth in microwell plates with doubling dilutions of antibiotic
Assay type: cell-based
Details: Escherichia coli
Source text: “Categorical agreement” is a term of art in AST that describes whether an organism is susceptible or resistant by each of two methods, typically a reference method and an investigative method. The reference method is broth microdilution and comes from the CLSI (M100).
Each experiment involved a standard inoculum of bacteria grown at a concentration similar to what was recovered from the growth-detection step, which began with whole blood. The inoculum was automatically dispensed into the wells of a microwell plate. The wells contained doubling dilutions of standard antibiotics such as cefepime, meropenem, ciprofloxacin, and gentamicin (for gram-negative bacteria). A large number of wells enabled multiple replicates per condition, providing robustness to random dropouts or to growth variation.
In each experiment, the growth and color of each well was monitored for growth by an automated imager. Serial images for each “bug-drug” combination were combined to create a unified picture of bacterial growth for each antibiotic, measure MICs, and determine any correction factors necessary to maximize S/I/R categorical agreement with reference MICs. […]

SMILES: CO/N=C(\C(=O)N[C@@H]1C(=O)N2C(C(=O)[O-])=C(C[N+]3(C)CCCC3)CS[C@H]12)c1csc(N)n1 [cefepime]
- MIC (cefepime-resistant strain of E. coli, FIG. 6B, within a single doubling dilution of reference-method MIC, read-out: MIC by the disclosed method (concentration at which growth falls off)): 16 µg/mL

SMILES: C[C@@H](O)[C@H]1C(=O)N2C(C(=O)O)=C(S[C@@H]3CN[C@H](C(=O)N(C)C)C3)[C@H](C)[C@H]12 [meropenem]
- MIC (read-out: MIC by the disclosed method (concentration at which fall in growth is visible)): 0.5 µg/mL
